Experimental data taken from patent US20250382332A1, “NOVEL ALPHA-FACTOR BASED PEPTIDES WITH ANTIFUNGAL ACTIVITY” (INVAIO SCIENCES, INC., priority 2024, published 2025).
Peptide text beside a SMILES is read from it.

System: Botrytis cinerea (B05.10)
Assay: Resazurin antifungal assay of 180 alpha-factor peptide variants towards Botrytis (Example 2)
Type: cell-based
Conditions: % inhibition of fungal growth, Botrytis conidia, resazurin; for Inhibition at 10 μM: peptide 10 μM; for Inhibition at 20 μM: peptide 20 μM; for Inhibition at 50 μM: peptide 50 μM; for Inhibition at 100 μM: peptide 100 μM
Summary of the method: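 B. cinerea B05.10 conidia (5000/well) were exposed to peptides at 100, 50, 20, 15 and 10 μM final for 24 h at 20° C. Resazurin was then added and fluorescence read at 570/620 nm. Percent growth inhibition was calculated against conidia-only wells, with four technical replicates.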

Structure (SMILES): CSCC[C@H](NC(=O)[C@@H]1CCCN1C(=O)[C@H](CCC(N)=O)NC(=O)CNC(=O)[C@@H]1CCCN1C(=O)[C@H](CCCCN)NC(=O)[C@H](CC(C)C)NC(=O)[C@H](CCCNC(=N)N)NC(=O)[C@H](CC(C)C)NC(=O)[C@H](CC(C)C)NC(=O)[C@H](Cc1c[nH]cn1)NC(=O)[C@@H](N)CCCCN)C(=O)N[C@@H](Cc1ccc(O)cc1)C(=O)O [compound 88] (H-KHLLRLKPGQPMY-OH; N-terminus and C-terminus assumed)
- Inhibition at 10 μM: <90%
- Inhibition at 20 μM: <90%
- Inhibition at 50 μM: 99.75%
- Inhibition at 100 μM: 100%

Structure (SMILES): CC[C@H](C)[C@H](NC(=O)[C@H](Cc1c[nH]c2ccccc12)NC(=O)[C@H](Cc1c[nH]cn1)NC(=O)[C@@H](N)Cc1c[nH]c2ccccc12)C(=O)N[C@@H](CC(N)=O)C(=O)N[C@@H](CC(C)C)C(=O)N[C@@H](Cc1c[nH]c2ccccc12)C(=O)N1CCC[C@H]1C(=O)NCC(=O)N[C@@H](CCC(N)=O)C(=O)N1CCC[C@H]1C(=O)N[C@@H](CCSC)C(=O)N[C@@H](Cc1ccc(O)cc1)C(=O)O [compound 114] (H-WHWINLWPGQPMY-OH; N-terminus and C-terminus assumed)
- Inhibition at 50 μM: <90%
- Inhibition at 100 μM: 100%

Structure (SMILES): CSCC[C@H](NC(=O)[C@@H]1CCCN1C(=O)[C@H](CCC(=O)O)NC(=O)CNC(=O)[C@@H](NC(=O)CNC(=O)[C@H](CC(C)C)NC(=O)[C@H](CCCCN)NC(=O)[C@H](CC(C)C)NC(=O)[C@H](Cc1c[nH]c2ccccc12)NC(=O)[C@H](Cc1c[nH]cn1)NC(=O)[C@@H](N)Cc1c[nH]c2ccccc12)[C@@H](C)O)C(=O)N[C@@H](Cc1ccc(O)cc1)C(=O)O [compound 119] (H-WHWLKLGTGEPMY-OH; N-terminus and C-terminus assumed)
- Inhibition at 50 μM: <90%
- Inhibition at 100 μM: 98.65%

Structure (SMILES): CSCC[C@H](NC(=O)[C@@H]1CCCN1C(=O)[C@H](CCC(N)=O)NC(=O)CNC(=O)[C@@H]1CCCN1C(=O)[C@H](CCCCN)NC(=O)[C@H](Cc1ccccc1)NC(=O)[C@H](CC(N)=O)NC(=O)[C@H](CC(C)C)NC(=O)[C@H](Cc1ccc(O)cc1)NC(=O)[C@H](Cc1c[nH]cn1)NC(=O)[C@@H](N)CCCCN)C(=O)N[C@@H](Cc1ccc(O)cc1)C(=O)O [compound 24] (H-KHYLNFKPGQPMY-OH; N-terminus and C-terminus assumed)
- Inhibition at 10 μM: <90%
- Inhibition at 20 μM: <90%
- Inhibition at 50 μM: 96.95%
- Inhibition at 100 μM: 100%

Structure (SMILES): CC[C@H](C)[C@H](NC(=O)[C@H](CC(C)C)NC(=O)[C@H](Cc1c[nH]cn1)NC(=O)[C@@H]1CCCN1)C(=O)N[C@@H](CCC(N)=O)C(=O)N[C@@H](CC(C)C)C(=O)NCC(=O)N[C@@H](CC(C)C)C(=O)NCC(=O)N[C@@H](CCC(N)=O)C(=O)N1CCC[C@H]1C(=O)N[C@@H](CCSC)C(=O)N[C@@H](Cc1ccc(O)cc1)C(=O)O [compound 131] (H-PHLIQLGLGQPMY-OH; N-terminus and C-terminus assumed)
- Inhibition at 50 μM: <90%
- Inhibition at 100 μM: <90%

Structure (SMILES): CSCC[C@H](NC(=O)[C@@H]1CCCN1C(=O)[C@H](CCC(N)=O)NC(=O)CNC(=O)[C@@H]1CCCN1C(=O)[C@H](CCCCN)NC(=O)[C@H](Cc1ccccc1)NC(=O)[C@H](CCC(=O)O)NC(=O)[C@H](CC(C)C)NC(=O)[C@@H](NC(=O)[C@H](Cc1c[nH]cn1)NC(=O)[C@@H](N)CCCCN)[C@@H](C)O)C(=O)N[C@@H](Cc1ccc(O)cc1)C(=O)O [compound 177] (H-KHTLEFKPGQPMY-OH; N-terminus and C-terminus assumed)
- Inhibition at 50 μM: <90%
- Inhibition at 100 μM: <90%
